Test results as given in patent US12171766B2, “Methods of treating patients suffering from brain injury and methods of increasing the value of the extended Glasgow Outcome Scale of patients suffering from brain injury” (VERINOS OPERATIONS GMBH, priority 2021, dated 2024).

Test: NOSTRA phase III trial: exposure control (pharmacokinetics), samples after end of infusion and 12 hours after end of infusion
Type: in vivo, human
Settings: TBI patients
Experimental: An exposure control was performed with samples collected after end of infusion and 12 hours after end of infusion. Due to the high sensibility of Ronopterin to oxidation, no utilizable values could be obtained for Ronopterin and, therefore, the first metabolite, 4-amino-dihydrobiopterin, was used as a surrogate. The mean absolute concentration for the first metabolite of Ronopterin was 1071 ng/mL at the end of the infusion and 476 ng/mL 12 hours later (56% elimination). The mean absolute value for the second Ronopterin metabolite was 52 ng/mL at the end of the infusion and 37 ng/mL 12 hours after end of infusion.

[1] = Ronopterin 17 mg/kg infused for 48 hours

For `C[C@H](O)[C@H](O)C1=Nc2c(N)nc(N)nc2NC1` [4-amino-dihydrobiopterin], the “elimination within 12 hours after end of infusion” value was 56%, the “mean absolute concentration 12 hours after end of infusion” value [1] was 476 ng/mL and the “mean absolute concentration at the end of the infusion” value [1] was 1071 ng/mL.
